Several values for one entry are separate records, joined by “and”; a condition that tells them apart may be missing. Identical values can stand only once. Entries after “also recorded” stand apart in the source; their conditions may differ. Blank lines part the entries; values can stand above or below the molecule they belong to.
Assays:
[1] = system: human omental arteries; assay: Isolated artery pressure myography: vasoconstriction to phenylephrine after alpha globin mimetic or control peptide, then L-NAME; assay type: cell-based; parameters: key to Top (Mean) / Bottom (Mean): fitted inner diameter, % of baseline; conditions: for Bottom (Mean) / Top (Mean): four parameter logistic fit of inner diameter (percentage of baseline) vs phenylephrine; for maximal constriction to phenylephrine (4-PL minimum): pairs of omental arteries from five donors; for effect on vasoconstriction response to PE: omental arteries incubated with peptide, 5 μmol/L
Experimental: To test this hypothesis, ex vivo pressure myography was performed on pairs of omental arteries obtained from each of five donors in response to escalating doses of the alpha adrenoreceptor agonist phenylephrine (responses fit with four parameter logistic regression best-fit values, FIGS. 6A-6B).
Isolated artery pressure myography: The pressure myography methodology utilized here for omental arteries is consistent with published protocols for assessing reactivity of mesenteric articles using a DMT pressure myograph (Shahid and Buys, JoVE J Vis Exp. 7.76:50328, 2013). Arteries […] in diameter were dissected from omental tissue on ice and transferred to the culture myograph wells (DMT-USA CM204); arterial inner diameter was measured by video microscope (DMT-USA) with digital calipers (MyoVIEW, DMT-USA).
All arteries used developed at least 20% myogenic tone after pressurization, consistent with standards for pressure myography (Shahid and Buys, JoVE J Vis Exp. 7.76:50328, 2013; Butcher et al., JoVE J Vis Exp. 28.62:3674, 2012; Jadeja et al., JoVE J Vis Exp. 6.101:e50997, 2015). Arteries were assessed for vasoconstriction response to the alpha-1-adrenoreceptor agonist phenylephrine (PE) [10^−9-10^−3] M (Sigma-Aldrich). Dose response to PE was then assessed after incubation with either the alpha globin mimetic peptide HbαX or a control peptide (5 μmol/L in KH buffer), and again following incubation with the NOS inhibitor No-Nitro-L-arginine methyl ester HCl (L-NAME, 10^−4 M)(Sigma-Aldrich).

[2] = molecular target: T1, association of alpha globin with eNOS (Mus musculus, UniProt P70313); conditions: mice; cited from earlier work
T1 construct: host or cells: mice (in vivo), endogenous proteins of resistance arteries
T1 sequence (P70313 2-1202 limits assumed): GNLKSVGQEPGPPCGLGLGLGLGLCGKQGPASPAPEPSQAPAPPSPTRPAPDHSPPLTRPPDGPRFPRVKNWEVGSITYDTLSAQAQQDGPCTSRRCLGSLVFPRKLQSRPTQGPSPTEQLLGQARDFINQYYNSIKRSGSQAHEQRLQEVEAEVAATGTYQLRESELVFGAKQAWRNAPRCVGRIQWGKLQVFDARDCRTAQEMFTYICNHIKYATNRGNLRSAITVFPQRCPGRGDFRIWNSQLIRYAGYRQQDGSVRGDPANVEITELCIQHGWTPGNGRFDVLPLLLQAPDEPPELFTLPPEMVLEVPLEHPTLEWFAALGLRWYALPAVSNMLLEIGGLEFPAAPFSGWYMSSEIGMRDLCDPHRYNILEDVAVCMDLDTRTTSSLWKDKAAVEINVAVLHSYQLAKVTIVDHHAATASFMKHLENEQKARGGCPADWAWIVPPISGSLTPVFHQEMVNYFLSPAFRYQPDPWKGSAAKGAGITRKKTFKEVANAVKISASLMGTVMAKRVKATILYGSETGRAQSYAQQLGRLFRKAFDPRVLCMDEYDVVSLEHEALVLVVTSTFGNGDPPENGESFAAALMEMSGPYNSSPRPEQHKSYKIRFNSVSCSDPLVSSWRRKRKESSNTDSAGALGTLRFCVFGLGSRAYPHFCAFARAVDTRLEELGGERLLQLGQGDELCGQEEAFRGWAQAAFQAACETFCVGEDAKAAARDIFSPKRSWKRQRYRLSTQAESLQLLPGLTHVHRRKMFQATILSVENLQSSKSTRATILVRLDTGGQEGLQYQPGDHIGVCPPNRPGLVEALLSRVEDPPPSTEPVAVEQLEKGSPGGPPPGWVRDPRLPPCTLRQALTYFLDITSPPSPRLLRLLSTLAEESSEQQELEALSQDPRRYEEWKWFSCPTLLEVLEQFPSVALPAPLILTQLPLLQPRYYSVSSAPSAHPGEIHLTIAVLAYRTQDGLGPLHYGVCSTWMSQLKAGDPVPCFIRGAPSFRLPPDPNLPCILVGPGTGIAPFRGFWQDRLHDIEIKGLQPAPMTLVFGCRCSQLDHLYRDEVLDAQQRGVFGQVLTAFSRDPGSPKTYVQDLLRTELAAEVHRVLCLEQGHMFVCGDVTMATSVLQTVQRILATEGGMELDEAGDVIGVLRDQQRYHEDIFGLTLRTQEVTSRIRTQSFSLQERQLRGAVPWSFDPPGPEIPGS

[3] = system: canine resistance arteries; assay: Pressure myography of canine arteries: phenylephrine dose escalation after Hbb-1; assay type: cell-based
Experimental: For these studies, omental tissue was removed from a canine laboratory animals soon after euthanasia. Mesenteric arteries 100-300 um in diameter were dissected out of the tissue and cannulated on glass pipettes. The arteries were incubated in a physiologic buffer solution (Krebs-Henseleit) at 37 degrees Celsius and pressured to 60 mm Hg. To assess vasoreactivity, escalating doses of phenylephrine were added to the incubation bath and artery diameter was measured using video microscopy with edge detection and digital calipers. The artery was incubated with 5 uM Hbb-1 peptide (including the tat cell permeability sequence) for 45 minutes. A second phenylephrine dose escalation was applied, and vasoconstriction was measured. The entire experiment was repeated with a second animal donor. In FIG. 20, artery diameter is presented as a percentage of baseline resting diameter at 60 mm Hg of pressure. The means and standard error of the mean were plotted for each condition and phenylephrine dose.

[4] = system: isolated human omental arteries; assay: Isolated artery pressure myography: vasoconstriction to phenylephrine after beta globin mimetic peptides; assay type: cell-based; conditions: peptide 5 μmol/L for 45 minutes at 37° C., ex vivo
Experimental: Collection of omental arteries: Human omental tissue was collected from patients during clinically indicated abdominal operations at the NIH Clinical Center. All patients provided informed consent for tissue procurement on IRB-approved protocol 13-C-0176 (NCT01915225). Tissue removed by the surgeon was immediately submerged in cold 4° C. Krebs-HEPES (KH) buffer (pH 7.4) and kept on ice during dissection and artery isolation. Small arteries were dissected away from the tissue in cold Krebs-HEPES (KH) buffer (Boston BioProducts).
Identification of beta globin mimetic peptides: Tetrameric hemoglobin was docked with dimer eNOS oxygenase domain using molecular docking algorithms (HADDOCK2). […]
Isolated artery pressure myography: The pressure myography methodology utilized here for omental arteries is consistent with published protocols for assessing reactivity of mesenteric articles using a DMT pressure myograph. […] Digital video calipers were used to measure in the inner diameter of cannulated arteries (MyoVIEW, DMT-USA) at two positions, and the average of both measurements was recorded.
All arteries developed at least 20% myogenic tone after pressurization, consistent with standards for pressure myography. Arteries were assessed for vasoconstriction response to the alpha-1-adrenoreceptor agonist phenylephrine (PE, Sigma-Aldrich) at successively higher doses ranging from 10^−9 to 10^−3 molar. […]

[5] = n = 5 human donors, peptide 5 μmol/L, L-NAME 10^-4 M
[6] = log of phenylephrine concentration, four parameter logistic fit, n = 5 human donors, peptide 5 μmol/L, L-NAME 10^-4 M
[7] = four parameter logistic fit, n = 5 human donors, peptide 5 μmol/L, L-NAME 10^-4 M

Molecule: COC(=O)[C@@H](N)CCCN=C(N)N[N+](=O)[O-].Cl [L-NAME, No-Nitro-L-arginine methyl ester HCl]
- effect of L-NAME on vasoconstriction to PE ([1]; control peptide-treated arteries): no effect
- effect of L-NAME on vasoconstriction to PE ([1]; mimetic peptide-treated arteries): vasoconstriction was restored
- phenylephrine-induced vasoconstriction after incubation with L-NAME ([1]; mimetic peptide-treated arteries, L-NAME 10^-4 M): 41.9±2.0 % of baseline

- IC50 ([1]; Homo sapiens, log of phenylephrine concentration, four parameter logistic fit, n = 5 human donors, peptide 5 μmol/L, L-NAME 10^-4 M): 1000 nM
Molecule: CNC[C@H](O)c1cccc(O)c1 [Phenylephrine (PE), phenylephrine]
- Bottom (Mean) [1, 5]: 46.11 and 39.08
- Top (Mean) [1, 5]: 100.30 and 100.12
- LogIC50 (Mean) [1, 6]: −5.891
- maximal constriction to phenylephrine (4-PL minimum) ([1]; peptide 5 μmol/L): 39.1±3.2 % of baseline diameter and 46.1±5.5 % of baseline diameter

Molecule: YGRKKRRQRRRLSFPTTKTYF [HbαX]
- alpha-1-adrenergic vasoconstriction [2]: reduced alpha-1-adrenergic vasoconstriction
- angiotensin-2 induced hypertension [2]: protection against angiotensin- 2 induced hypertension
- association of alpha globin with eNOS in vivo [2]: disrupt the association of alpha globin with eNOS
- mean arterial blood pressure [2]: lower mean arterial blood pressure
- Bottom (Mean) [1, 5]: 64.59
- Top (Mean) [1, 5]: 99.93
- HillSlope (Mean) [1, 7]: −0.549
- disruption of NO-scavenging in human vessels ([1]; human vessels): potent disruptor of NO-scavenging
- LogIC50 (Mean) [1, 6]: −5.575
- effect on vasoconstriction response to PE ([1]; listed as alpha globin mimetic peptide): significantly inhibited the vasoconstriction response to PE; also recorded: diminished this constriction
- maximal constriction to phenylephrine (4-PL minimum) ([1]; peptide 5 μmol/L): 64.6±1.6 % of baseline diameter

Molecule: TPEEKSAVTALWGK [Hbb-1]
- increase of phenylephrine dose needed to achieve the same degree of vasoconstriction ([3]; 5 uM Hbb-1 peptide (including tat sequence) for 45 minutes, two animal donors): approximately 100 times
- effect on phenylephrine-induced vasoconstriction in canine arteries ([3]; 5 uM Hbb-1 peptide for 45 minutes): can inhibit vasoconstriction; also recorded: shifted the vasoconstrictive response to phenylephrine to the right; also recorded: inhibits phenylephrine-induced vasoconstriction
- effect on human arterial vasoconstriction responses to phenylephrine [4]: can inhibit vasoconstriction
- effect on human arterial vasoconstriction responses to phenylephrine ([4]; listed as Hbb-Peptide-1): potent vasodilatory effects

Molecule: YGRKKRRQRRRFPYFSTKLTT [control peptide]
- Bottom (Mean) [1, 5]: 45.78
- Top (Mean) [1, 5]: 100.40
- HillSlope (Mean) [1, 7]: −0.623
- LogIC50 (Mean) [1, 6]: −6.020
- effect on vasoconstriction response to PE [1]: no significant difference
- maximal constriction to phenylephrine (4-PL minimum) ([1]; peptide 5 μmol/L): 39.1±3.2 % of baseline diameter
